Patent US20240190849A1, “AMINOPYRIMIDINE COMPOUNDS AND METHODS OF THEIR USE” (TYRA BIOSCIENCES, INC., priority 2021, published 2024)

How the values were obtained:
Conditions in all cases: FGFR binding data
[1] = biological target: T1, FGFR1 (Homo sapiens, UniProt P11362); assay: Kinase binding assay (kinase-tagged T7 phage, affinity beads, qPCR readout), FGFR1
T1 construct: made in house; host or cells: E. coli derived from BL21, infected with T7 phage
In short: (§1)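 Competition binding: kinases displaced from biotinylated-ligand streptavidin beads by test compound in binding buffer (20% SeaBlock, 0.17×PBS, 0.05% Tween 20, 6 mM DTT), 1 hour at room temperature, 0.9% DMSO. Bead-bound kinase eluted with 0.5 μM free ligand, quantified by qPCR. Kd from 11-point 3-fold dilutions, Hill slope fixed at −1.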

[2] = biological target: T2, FGFR3 (Homo sapiens, UniProt P22607); assay: Kinase binding assay (kinase-tagged T7 phage, affinity beads, qPCR readout), FGFR3
T2 construct: made in house; host or cells: E. coli derived from BL21, infected with T7 phage
In short: as §1

[3] = biological target: T3, FGFR2 (Homo sapiens, UniProt P21802); assay: Kinase binding assay (kinase-tagged T7 phage, affinity beads, qPCR readout), FGFR2
T3 construct: made in house; host or cells: E. coli derived from BL21, infected with T7 phage
In short: as §1

[4] = biological target: T4, FGFR3 (V555M) (Homo sapiens, UniProt P22607, V555M); assay: Kinase binding assay (kinase-tagged T7 phage, affinity beads, qPCR readout), FGFR3 (V555M)
T4 construct: made in house; host or cells: E. coli derived from BL21, infected with T7 phage
In short: as §1

T4 sequence (P22607 23-806 V555M): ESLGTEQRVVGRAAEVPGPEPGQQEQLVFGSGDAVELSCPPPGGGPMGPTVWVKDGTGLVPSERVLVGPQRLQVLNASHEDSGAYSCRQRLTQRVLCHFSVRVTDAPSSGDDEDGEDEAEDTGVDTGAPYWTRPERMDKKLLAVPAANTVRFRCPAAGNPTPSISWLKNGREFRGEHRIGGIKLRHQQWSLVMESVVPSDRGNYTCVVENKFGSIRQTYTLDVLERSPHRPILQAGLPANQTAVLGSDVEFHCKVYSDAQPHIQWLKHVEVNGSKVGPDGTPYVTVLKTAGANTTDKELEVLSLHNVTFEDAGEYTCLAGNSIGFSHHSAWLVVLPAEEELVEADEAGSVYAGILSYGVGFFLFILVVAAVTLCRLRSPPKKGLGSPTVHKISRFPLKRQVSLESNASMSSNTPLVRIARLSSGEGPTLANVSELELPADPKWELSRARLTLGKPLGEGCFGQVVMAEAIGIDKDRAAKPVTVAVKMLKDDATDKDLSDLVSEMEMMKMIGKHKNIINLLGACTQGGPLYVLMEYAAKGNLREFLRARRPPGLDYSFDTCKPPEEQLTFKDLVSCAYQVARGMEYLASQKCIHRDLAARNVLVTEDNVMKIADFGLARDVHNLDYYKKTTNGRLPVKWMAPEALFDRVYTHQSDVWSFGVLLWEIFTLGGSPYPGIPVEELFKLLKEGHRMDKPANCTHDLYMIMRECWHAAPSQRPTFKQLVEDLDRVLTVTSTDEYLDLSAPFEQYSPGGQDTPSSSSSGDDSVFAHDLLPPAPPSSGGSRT
T3 sequence (P21802 22-821): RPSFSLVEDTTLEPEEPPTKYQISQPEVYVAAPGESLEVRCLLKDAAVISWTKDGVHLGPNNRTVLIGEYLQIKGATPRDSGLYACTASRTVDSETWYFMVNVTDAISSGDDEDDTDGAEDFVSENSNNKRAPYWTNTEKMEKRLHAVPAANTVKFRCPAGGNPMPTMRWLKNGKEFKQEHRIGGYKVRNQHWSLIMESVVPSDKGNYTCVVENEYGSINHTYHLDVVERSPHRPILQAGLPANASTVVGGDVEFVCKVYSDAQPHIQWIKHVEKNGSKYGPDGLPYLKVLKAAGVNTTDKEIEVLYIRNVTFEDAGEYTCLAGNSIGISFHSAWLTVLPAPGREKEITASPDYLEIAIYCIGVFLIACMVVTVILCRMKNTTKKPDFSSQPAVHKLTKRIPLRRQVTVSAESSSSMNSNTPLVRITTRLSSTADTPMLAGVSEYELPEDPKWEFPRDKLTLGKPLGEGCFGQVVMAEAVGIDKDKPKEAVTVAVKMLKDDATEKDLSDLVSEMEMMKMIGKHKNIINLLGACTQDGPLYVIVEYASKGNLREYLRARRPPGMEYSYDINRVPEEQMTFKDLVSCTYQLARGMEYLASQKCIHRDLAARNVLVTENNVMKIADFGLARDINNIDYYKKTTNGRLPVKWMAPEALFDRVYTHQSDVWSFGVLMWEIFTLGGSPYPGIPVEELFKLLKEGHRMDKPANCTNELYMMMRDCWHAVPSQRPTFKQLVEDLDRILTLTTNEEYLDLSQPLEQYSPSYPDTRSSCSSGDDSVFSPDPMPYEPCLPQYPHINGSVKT
T1 sequence (P11362 22-822): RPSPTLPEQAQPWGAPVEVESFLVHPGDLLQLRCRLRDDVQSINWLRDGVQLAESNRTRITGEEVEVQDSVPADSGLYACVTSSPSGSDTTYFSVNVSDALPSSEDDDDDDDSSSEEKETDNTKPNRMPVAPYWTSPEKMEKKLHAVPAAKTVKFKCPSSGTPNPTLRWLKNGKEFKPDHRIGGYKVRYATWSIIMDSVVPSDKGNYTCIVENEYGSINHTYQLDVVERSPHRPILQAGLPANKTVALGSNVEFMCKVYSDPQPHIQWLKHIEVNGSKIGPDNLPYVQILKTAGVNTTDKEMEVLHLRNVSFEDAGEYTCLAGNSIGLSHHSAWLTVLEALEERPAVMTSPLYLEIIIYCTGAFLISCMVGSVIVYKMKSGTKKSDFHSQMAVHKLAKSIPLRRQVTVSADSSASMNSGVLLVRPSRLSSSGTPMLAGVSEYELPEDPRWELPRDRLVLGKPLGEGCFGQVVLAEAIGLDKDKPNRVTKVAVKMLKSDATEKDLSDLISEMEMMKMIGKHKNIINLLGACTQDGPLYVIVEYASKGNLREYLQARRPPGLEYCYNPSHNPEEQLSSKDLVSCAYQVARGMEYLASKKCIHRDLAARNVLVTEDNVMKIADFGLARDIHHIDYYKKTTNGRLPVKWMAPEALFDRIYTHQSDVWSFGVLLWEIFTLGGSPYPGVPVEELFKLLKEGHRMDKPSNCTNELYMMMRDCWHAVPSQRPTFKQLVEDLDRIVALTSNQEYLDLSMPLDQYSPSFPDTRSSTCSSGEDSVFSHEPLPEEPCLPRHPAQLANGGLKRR
T2 sequence (P22607 23-806): as the sequence (P22607 23-806 V555M) above, with M533V counted along it

SMILES	Kd [1] [nM]	Kd [2] [nM]	Kd [3] [nM]	Kd [4] [nM]
C=CC(=O)Nc1ccc2c(-c3nc(Nc4cn(CC)nc4C)ncc3F)cn(C)c2c1 [Example 177, N-[3-[2-[(1-ethyl-3-methyl-pyrazol-4-yl)amino]-5-fluoro-pyrimidin-4-yl]-1-methyl-indol-6-yl]prop-2-enamide]	250 to 1000	0.1 to 100	0.1 to 100	0.1 to 100
C=CC(=O)Nc1ccc2c(c1)c(C)cn2-c1nc(Nc2ccccc2OCC)ncc1C#N [Example 39, N-[1-[5-cyano-2-(2-ethoxyanilino)pyrimidin-4-yl]-3-methyl-indol-5-yl]prop-2-enamide]	> 1000	> 1000	> 1000	> 1000
C=CC(=O)Nc1ccc2c(c1)c(C)nn2-c1ccnc(Nc2ccnn2C)n1 [Example 87, N-[3-methyl-1-[2-[(2-methylpyrazol-3-yl)amino]pyrimidin-4-yl]indazol-5-yl]prop-2-enamide]	> 1000	> 1000	> 1000	> 1000
C=CC(=O)Nc1ccc2c(c1)c(C)cn2-c1ccnc(Nc2ccnn2C)n1 [Example 82, N-[3-methyl-1-[2-[(2-methylpyrazol-3-yl)amino]pyrimidin-4-yl]indol-5-yl]prop-2-enamide]	100 to 250	0.1 to 100	0.1 to 100	0.1 to 100
C=CC(=O)Nc1ccc2c(ccn2-c2nc(Nc3ccc(N4CCOCC4)cc3)ncc2Cl)c1 [Example 15, N-[1-[5-chloro-2-(4-morpholinoanilino)pyrimidin-4-yl]indol-5-yl]prop-2-enamide]	100 to 250	0.1 to 100	0.1 to 100	0.1 to 100
C=C(F)C(=O)Nc1cnc2c(c1)c(C)cn2-c1nc(Nc2ccn(C)n2)ncc1C [Example 117, 2-fluoro-N-[3-methyl-1-[5-methyl-2-[(1-methylpyrazol-3-yl)amino]pyrimidin-4-yl]pyrrolo[2,3-b]pyridin-5-yl]prop-2-enamide]	> 1000	> 1000	> 1000	> 1000
C=CC(=O)Nc1ccc2c(c1)c(C)cn2-c1cc(Nc2cnn(C)c2)ncn1 [Example 219, N-[3-methyl-1-[6-[(1-methylpyrazol-4-yl)amino]pyrimidin-4-yl]indol-5-yl]prop-2-enamide]	> 1000	100 to 250	250 to 1000	250 to 1000
C=CC(=O)Nc1ccc2c(c1)c(C)cn2-c1cc(Nc2cn(C)nc2C)nnc1C [Example 209, N-[1-[6-[(1,3-dimethylpyrazol-4-yl)amino]-3-methyl-pyridazin-4-yl]-3-methyl-indol-5-yl]prop-2-enamide]	> 1000	> 1000	> 1000	> 1000
C=C(C)C(=O)Nc1cnc2c(c1)c(C)cn2-c1nc(Nc2ccn(C)n2)ncc1C [Example 118, 2-methyl-N-[3-methyl-1-[5-methyl-2-[(1-methylpyrazol-3-yl)amino]pyrimidin-4-yl]pyrrolo[2,3-b]pyridin-5-yl]prop-2-enamide]	> 1000	> 1000	> 1000	> 1000
C=CC(=O)Nc1cc2c(C)cn(-c3nc(Nc4ccc(N5CCOCC5)cc4)ncc3Cl)c2cc1C [Example 60, N-[1-[5-chloro-2-(4-morpholinoanilino)-pyrimidin-4-yl]-3,6-dimethyl-indol-5-yl]prop-2-enamide]	> 1000	> 1000	> 1000	100 to 250
C=C(C)C(=O)Nc1ccc2c(c1)c(C)cn2-c1nc(Nc2ccnn2C)ncc1C [Example 104, 2-methyl-N-[3-methyl-1-[5-methyl-2-[(2-methylpyrazol-3-yl)amino]pyrimidin-4-yl]indol-5-yl]prop-2-enamide]	> 1000	> 1000	> 1000	> 1000

Continued, values first:

Kd [1] [nM]	Kd [2] [nM]	Kd [3] [nM]	Kd [4] [nM]	SMILES
100 to 250	0.1 to 100	100 to 250	100 to 250	CCn1cc(Nc2ncc(F)c(-n3cc(C)c4cc(NC(=O)/C=C/CN(C)C)cnc43)n2)c(C)n1 [Example 171, (E)-4-(dimethylamino)-N-[1-[2-[(1-ethyl-3-methyl-pyrazol-4-yl)amino]-5-fluoro-pyrimidin-4-yl]-3-methyl-pyrrolo[2,3-b]pyridin-5-yl]but-2-enamide]
100 to 250	0.1 to 100	100 to 250	0.1 to 100	CCn1ccc(Nc2ncc(C)c(-n3cc(C)c4cc(NC(=O)/C=C/CN(C)C)cnc43)n2)n1 [Example 115, (E)-4-(dimethylamino)-N-[1-[2-[(1-ethylpyrazol-3-yl)amino]-5-methyl-pyrimidin-4-yl]-3-methyl-pyrrolo[2,3-b]pyridin-5-yl]but-2-enamide]
0.1 to 100	0.1 to 100	0.1 to 100	0.1 to 100	C=CC(=O)Nc1ccc2c(c1)c(C)cn2-c1nc(Nc2cn(CCOC)nc2C)ncc1F [Example 202, N-[1-[5-fluoro-2-[[1-(2-methoxyethyl)-3-methyl-pyrazol-4-yl]amino]pyrimidin-4-yl]-3-methyl-indol-5-yl]prop-2-enamide]
100 to 250	0.1 to 100	0.1 to 100	0.1 to 100	C=CC(=O)Nc1ccc2c(c1)c(C)cn2-c1nc(Nc2ccc3ncnn3c2)ncc1Cl [Example 47, N-[1-[5-chloro-2-([1,2,4]triazolo[1,5-a]pyridin-6-ylamino)pyrimidin-4-yl]-3-methyl-indol-5-yl]prop-2-enamide]
0.1 to 100	0.1 to 100	0.1 to 100	0.1 to 100	C=CC(=O)Nc1ccc2c(-c3ccnc(Nc4cnn(C(C)C)c4)n3)cn(C)c2c1 [Example 96, N-[3-[2-[(1-isopropylpyrazol-4-yl)amino]pyrimidin-4-yl]-1-methyl-indol-6-yl]prop-2-enamide]
0.1 to 100	0.1 to 100	0.1 to 100	0.1 to 100	C=CC(=O)Nc1cnc2c(c1)c(C)cn2-c1nc(Nc2ccn(CCO)n2)ncc1C [Example 119, N-[1-[2-[[1-(2-hydroxyethyl)pyrazol-3-yl]amino]-5-methyl-pyrimidin-4-yl]-3-methyl-pyrrolo[2,3-b]pyridin-5-yl]prop-2-enamide]
0.1 to 100	0.1 to 100	0.1 to 100	0.1 to 100	C=CC(=O)Nc1cnc2c(c1)c(C)cn2-c1ccnc(Nc2ccn(C)n2)n1 [Example 98, N-[3-methyl-1-[2-[(1-methylpyrazol-3-yl)amino]pyrimidin-4-yl]pyrrolo[2,3-b]pyridin-5-yl]prop-2-enamide]
0.1 to 100	0.1 to 100	0.1 to 100	0.1 to 100	C#CC(=O)Nc1ccc2c(c1)c(C)cn2-c1nc(Nc2ccnn2C)ncc1C [Example 108, N-[3-methyl-1-[5-methyl-2-[(2-methylpyrazol-3-yl)amino]pyrimidin-4-yl]indol-5-yl]prop-2-ynamide]
0.1 to 100	0.1 to 100	0.1 to 100	0.1 to 100	C=CC(=O)Nc1ccc2c(c1)c(C)cn2-c1cc(Nc2cnn(C)c2)ncc1C [Example 223, N-[3-methyl-1-[5-methyl-2-[(1-methylpyrazol-4-yl)amino]-4-pyridyl]indol-5-yl]prop-2-enamide]
0.1 to 100	100 to 250	250 to 1000	0.1 to 100	CCC(=O)Nc1ccc2c(ccn2-c2nc(Nc3ccc(N4CCN(C)CC4)cc3)ncc2Cl)c1 [Example 4, N-[1-[5-chloro-2-[4-(4-methylpiperazin-1-yl)anilino]pyrimidin-4-yl]indol-5-yl]propanamide]
